5 molecules from PMC4648050, “Discovery of Inhibitors of Trypanosoma brucei by Phenotypic Screening of a Focused Protein Kinase Library” (Chemmedchem, 2015) can be followed below.

Data set [1] in a line: Kinetic aqueous solubility (laser nephelometry). Particulars: Milli-Q water with 2.5% DMSO, kinetic from dmso stock, range 250–12 μM, read-out: Aq. Sol. (aqueous kinetic solubility). It counts as physicochemical. How it is done:
Solubility experiments: The kinetic aqueous solubility of the test compounds was measured using laser nephelometry. Compounds were subject to serial dilution from 10 mM to 0.5 mM in DMSO. An aliquot was then mixed with Milli-Q H2O to obtain an aqueous dilution plate with a final concentration range of 250–12 μM, with a final DMSO concentration of 2.5 %. Triplicate aliquots were transferred to a flat-bottomed polystyrene plate which was immediately read on the NEPHELOstar (BMG Lab Technologies). The amount of laser scatter caused by insoluble particulates (relative nephelometry units, RNU) was plotted against compound concentration using a segmental regression fit, with the point of inflection being quoted as the compounds′ aqueous solubility (in μM).

The target of data set [2] is T1, PKC zeta (Homo sapiens, UniProt Q05513).
T1 sequence (Q05513 1-592): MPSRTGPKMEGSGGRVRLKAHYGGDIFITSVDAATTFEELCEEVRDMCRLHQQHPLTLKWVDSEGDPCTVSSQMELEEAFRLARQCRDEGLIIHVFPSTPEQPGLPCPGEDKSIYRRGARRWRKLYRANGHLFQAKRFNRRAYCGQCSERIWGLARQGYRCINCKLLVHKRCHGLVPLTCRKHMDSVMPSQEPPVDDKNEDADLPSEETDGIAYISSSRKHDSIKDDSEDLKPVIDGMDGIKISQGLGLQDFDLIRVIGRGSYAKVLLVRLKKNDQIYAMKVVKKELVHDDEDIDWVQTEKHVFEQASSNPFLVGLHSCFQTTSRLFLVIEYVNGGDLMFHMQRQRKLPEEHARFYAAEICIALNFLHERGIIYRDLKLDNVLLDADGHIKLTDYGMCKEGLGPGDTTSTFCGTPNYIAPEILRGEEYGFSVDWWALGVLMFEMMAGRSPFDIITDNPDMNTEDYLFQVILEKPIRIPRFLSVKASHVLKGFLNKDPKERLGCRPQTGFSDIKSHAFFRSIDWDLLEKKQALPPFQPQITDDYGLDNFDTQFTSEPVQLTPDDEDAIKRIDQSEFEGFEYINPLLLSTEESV
Briefly: Kinase panel: PKC zeta. It counts as biochemical, human/mammalian. The following applies: compound at 10 μM, read-out: % of activity respect of the control. The protocol: (§1) The DDU kinase-focused compound set contains lead-like scaffolds that are designed to target protein kinases; they have kinase hinge binding motifs. Four of the 1H-imidazopyrazinones were screened against a human/mammalian kinase panel at the University of Dundee (http://www.kinase-screen.mrc.ac.uk) at a concentration of 10 μM. At the time of testing the panel contained 79 mammalian kinases selected to provide a broad coverage of the mammalian kinome (∼500 kinases in the human genome).[3] None of the compounds were active against any of the kinases at 10 μM.

The target of data set [3] is MSK1 (Homo sapiens, UniProt O75582). Briefly: Kinase panel: MSK1. It counts as biochemical, human/mammalian. The following applies: compound at 10 μM, read-out: % of activity respect of the control. How it is done:
as §1

The target in data set [4] is MAPKAP-K2 (Homo sapiens, UniProt P49137). As to the kind of experiment: Kinase panel: MAPKAP-K2. Type of data set: biochemical, human/mammalian. The following applies: compound at 10 μM, read-out: % of activity respect of the control. How it is done: as §1
Data set [5] concerns the target CAMKKb (Homo sapiens, UniProt Q96RR4). As to the kind of experiment: Kinase panel: CAMKKb. Type of data set: biochemical, human/mammalian. Particulars: compound at 10 μM, read-out: % of activity respect of the control. How it is done:
as §1

The target in data set [6] is CDK2-Cyclin A (Homo sapiens, UniProt P24941). As to the kind of experiment: Kinase panel: CDK2-Cyclin A. Type of data set: biochemical, human/mammalian. The following applies: compound at 10 μM, read-out: % of activity respect of the control. The protocol:
as §1

The target in data set [7] is T2, DYRK2 (Homo sapiens, UniProt Q92630).
T2 sequence (Q92630 1-601): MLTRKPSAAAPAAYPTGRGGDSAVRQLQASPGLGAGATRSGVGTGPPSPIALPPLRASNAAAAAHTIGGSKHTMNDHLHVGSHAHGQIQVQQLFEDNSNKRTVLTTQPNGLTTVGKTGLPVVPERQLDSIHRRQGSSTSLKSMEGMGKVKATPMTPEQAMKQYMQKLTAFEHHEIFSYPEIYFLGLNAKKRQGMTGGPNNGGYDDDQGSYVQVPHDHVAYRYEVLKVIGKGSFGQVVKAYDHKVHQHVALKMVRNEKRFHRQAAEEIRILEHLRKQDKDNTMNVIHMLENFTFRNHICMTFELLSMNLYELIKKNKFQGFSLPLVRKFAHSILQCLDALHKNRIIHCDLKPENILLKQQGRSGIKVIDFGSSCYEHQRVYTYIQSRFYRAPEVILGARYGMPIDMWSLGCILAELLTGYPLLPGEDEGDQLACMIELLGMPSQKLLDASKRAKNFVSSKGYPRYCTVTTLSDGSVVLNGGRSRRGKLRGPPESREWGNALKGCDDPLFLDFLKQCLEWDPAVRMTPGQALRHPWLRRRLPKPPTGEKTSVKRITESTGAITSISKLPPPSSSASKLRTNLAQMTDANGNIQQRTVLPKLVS
Briefly: Kinase panel: DYRK2. Type of data set: biochemical, human/mammalian. Particulars: compound at 10 μM, read-out: % of activity respect of the control. How it is done: as §1

Data set [8] concerns the target T3, DYRK3 (Homo sapiens, UniProt O43781).
T3 sequence (O43781 1-588): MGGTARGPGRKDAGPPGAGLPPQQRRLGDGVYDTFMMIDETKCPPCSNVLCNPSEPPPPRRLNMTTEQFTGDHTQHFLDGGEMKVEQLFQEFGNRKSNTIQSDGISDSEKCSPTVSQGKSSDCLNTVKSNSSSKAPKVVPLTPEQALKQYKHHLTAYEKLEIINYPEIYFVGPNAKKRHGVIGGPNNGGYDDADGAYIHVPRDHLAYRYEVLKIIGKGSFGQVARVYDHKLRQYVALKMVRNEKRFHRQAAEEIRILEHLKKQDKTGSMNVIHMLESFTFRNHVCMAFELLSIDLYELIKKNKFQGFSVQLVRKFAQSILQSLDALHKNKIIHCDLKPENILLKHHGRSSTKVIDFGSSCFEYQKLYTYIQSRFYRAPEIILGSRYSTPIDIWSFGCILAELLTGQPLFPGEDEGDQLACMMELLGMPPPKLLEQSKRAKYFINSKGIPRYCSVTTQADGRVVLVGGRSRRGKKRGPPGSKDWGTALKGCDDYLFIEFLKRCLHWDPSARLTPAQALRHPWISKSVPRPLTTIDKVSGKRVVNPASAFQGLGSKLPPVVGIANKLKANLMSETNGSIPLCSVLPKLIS
As to the kind of experiment: Kinase panel: DYRK3. Particulars: compound at 10 μM, read-out: % of activity respect of the control. Type of data set: biochemical, human/mammalian. How it is done:
as §1

In data set [9] the target is FGF-R1 (Homo sapiens, UniProt P11362). Briefly: Kinase panel: FGF-R1. Type of data set: biochemical, human/mammalian. The following applies: compound at 10 μM, read-out: % of activity respect of the control. How it is done: as §1

SMILES strings stand for the structures. ≈ marks a conversion by molar mass, not a printed value. Bounds are passed on as bounds.

Sequence of CAMKKb (Q96RR4 whole entry): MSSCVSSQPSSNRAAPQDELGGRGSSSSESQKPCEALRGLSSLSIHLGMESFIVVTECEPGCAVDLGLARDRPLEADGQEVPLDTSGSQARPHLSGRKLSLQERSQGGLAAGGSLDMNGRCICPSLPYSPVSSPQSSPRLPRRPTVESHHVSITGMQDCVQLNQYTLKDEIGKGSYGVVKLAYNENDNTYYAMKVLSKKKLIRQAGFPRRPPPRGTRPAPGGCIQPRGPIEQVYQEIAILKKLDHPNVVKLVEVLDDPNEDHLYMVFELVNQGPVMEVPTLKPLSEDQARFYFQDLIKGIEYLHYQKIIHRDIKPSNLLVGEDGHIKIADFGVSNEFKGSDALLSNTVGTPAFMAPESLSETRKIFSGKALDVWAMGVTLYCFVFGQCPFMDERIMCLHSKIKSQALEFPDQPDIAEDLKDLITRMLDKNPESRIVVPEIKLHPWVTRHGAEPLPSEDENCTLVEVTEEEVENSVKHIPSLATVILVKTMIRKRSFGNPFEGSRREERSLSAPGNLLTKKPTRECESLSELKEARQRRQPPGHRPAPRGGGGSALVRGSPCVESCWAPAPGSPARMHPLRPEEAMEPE
Sequence of MAPKAP-K2 (P49137 whole entry): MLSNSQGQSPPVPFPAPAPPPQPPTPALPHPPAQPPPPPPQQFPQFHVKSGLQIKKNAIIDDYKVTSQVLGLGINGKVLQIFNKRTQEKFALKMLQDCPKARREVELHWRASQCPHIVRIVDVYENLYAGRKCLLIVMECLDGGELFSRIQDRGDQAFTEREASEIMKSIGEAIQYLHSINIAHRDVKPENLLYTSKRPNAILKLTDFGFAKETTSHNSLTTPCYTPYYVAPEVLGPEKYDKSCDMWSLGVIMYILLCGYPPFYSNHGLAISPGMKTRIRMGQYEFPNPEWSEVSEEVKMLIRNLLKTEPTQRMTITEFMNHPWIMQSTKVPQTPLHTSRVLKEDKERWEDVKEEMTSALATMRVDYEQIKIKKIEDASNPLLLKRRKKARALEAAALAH
Sequence of MSK1 (O75582 whole entry): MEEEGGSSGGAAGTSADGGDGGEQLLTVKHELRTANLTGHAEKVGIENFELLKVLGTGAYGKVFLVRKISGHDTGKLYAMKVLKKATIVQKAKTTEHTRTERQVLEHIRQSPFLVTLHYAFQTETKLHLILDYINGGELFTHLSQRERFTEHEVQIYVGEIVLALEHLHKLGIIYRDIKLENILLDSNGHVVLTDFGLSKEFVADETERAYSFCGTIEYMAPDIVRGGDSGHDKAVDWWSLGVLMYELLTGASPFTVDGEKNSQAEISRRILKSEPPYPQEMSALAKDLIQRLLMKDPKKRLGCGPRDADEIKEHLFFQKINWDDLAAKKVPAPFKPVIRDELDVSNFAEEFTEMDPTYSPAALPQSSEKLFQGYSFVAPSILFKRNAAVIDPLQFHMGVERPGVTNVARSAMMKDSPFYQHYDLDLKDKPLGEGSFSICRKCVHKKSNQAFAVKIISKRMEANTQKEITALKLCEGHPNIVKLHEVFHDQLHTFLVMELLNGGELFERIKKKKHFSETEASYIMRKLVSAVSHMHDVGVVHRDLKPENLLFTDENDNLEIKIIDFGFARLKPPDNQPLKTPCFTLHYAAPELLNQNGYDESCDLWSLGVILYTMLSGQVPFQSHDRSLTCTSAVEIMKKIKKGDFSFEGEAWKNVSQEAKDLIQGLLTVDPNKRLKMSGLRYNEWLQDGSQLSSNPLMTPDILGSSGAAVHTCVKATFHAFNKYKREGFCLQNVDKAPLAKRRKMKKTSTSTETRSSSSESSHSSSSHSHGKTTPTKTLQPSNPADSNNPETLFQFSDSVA
Sequence of FGF-R1 (P11362 22-822): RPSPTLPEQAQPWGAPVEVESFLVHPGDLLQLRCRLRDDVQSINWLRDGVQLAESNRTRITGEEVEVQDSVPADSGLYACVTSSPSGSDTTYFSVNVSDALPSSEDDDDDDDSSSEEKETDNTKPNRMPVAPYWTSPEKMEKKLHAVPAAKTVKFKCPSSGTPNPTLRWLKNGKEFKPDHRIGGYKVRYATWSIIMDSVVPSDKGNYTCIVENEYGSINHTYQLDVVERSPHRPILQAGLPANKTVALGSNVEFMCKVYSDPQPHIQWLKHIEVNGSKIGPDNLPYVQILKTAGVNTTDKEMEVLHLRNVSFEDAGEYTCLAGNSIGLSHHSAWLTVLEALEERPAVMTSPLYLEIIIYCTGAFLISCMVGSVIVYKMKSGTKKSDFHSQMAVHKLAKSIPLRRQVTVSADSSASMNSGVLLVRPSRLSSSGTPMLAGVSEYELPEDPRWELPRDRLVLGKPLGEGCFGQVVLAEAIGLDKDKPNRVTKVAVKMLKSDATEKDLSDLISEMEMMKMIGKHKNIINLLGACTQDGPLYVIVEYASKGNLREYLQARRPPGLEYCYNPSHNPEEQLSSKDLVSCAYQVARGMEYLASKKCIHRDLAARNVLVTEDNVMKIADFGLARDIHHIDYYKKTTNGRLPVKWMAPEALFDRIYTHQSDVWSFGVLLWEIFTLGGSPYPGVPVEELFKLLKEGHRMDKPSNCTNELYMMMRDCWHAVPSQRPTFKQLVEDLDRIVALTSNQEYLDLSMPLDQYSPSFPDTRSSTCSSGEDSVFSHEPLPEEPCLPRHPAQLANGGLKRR

As to `CC(c1ccccc1)n1c(=O)[nH]c2ncc(-c3ccc(F)cc3)nc21` (stereo not drawn) [Compound 1], the kinetic solubility in data set [1] was less than 12 µM. The remaining activity at 10 µM in [2] was 94%; in data set [3], 89%; in [4], 90%; in data set [5], 101%; in data set [6] it was 89%; in data set [7], 100%. The remaining activity at 10 µM in [8] is 109%; in data set [9], 95%.

For `O=c1[nH]c2ncc(-c3ccc(F)cc3)nc2n1CC1CC1` [Compound 10], the remaining activity at 10 µM is 90% in data set [2]; 89% in data set [3]; 104% in data set [4]; 98% in data set [5]; 82% in data set [6]; 94% in data set [7]. The values for the remaining activity at 10 µM in data set [8] and in data set [9] were 108% and 88%, respectively.

As for `O=c1[nH]c2ncc(-c3ccc(F)cc3)nc2n1C1CCCCC1` [Compound 12, 1-Cyclohexyl-6-(4-fluorophenyl)-1H-imidazo[4,5-b]pyrazin-2(3H)-one], the kinetic solubility in data set [1] came out at 55 µM (≈ 17.2 µg/mL). Also, the remaining activity at 10 µM turned out to be 90% in [2]; 97% in data set [3]; 101% in data set [4]; 104% in [5]; 84% in data set [6]; 99% in [7]. For the same molecule, the remaining activity at 10 µM in data set [8] amounted to 99%; in data set [9], 96%.

On to `C[C@H](c1ccccc1)n1c(=O)[nH]c2ncc(-c3ccccc3)nc21` [Compound 14, (R)-6-Phenyl-1-(1-phenylethyl)-1H-imidazo[4,5-b]pyrazin-2(3H)-one], for which the kinetic solubility in data set [1] was less than 12 µM. Further, the remaining activity at 10 µM in [2] was found to be 88%; in data set [3], 93%; in data set [4], 84%; in [5] it was 86%; in data set [6] it was 84%; in [7], 89%. The remaining activity at 10 µM in data set [8] was determined as 100%; in data set [9] it was 63%.

As to `O=c1[nH]c2ncc(-c3ccccc3CO)nc2n1C1CCCCC1` [Compound 28], in data set [1], the kinetic solubility is greater than 250 µM.
